Experiments:
Conditions in all cases: after 10, 20, 40 and 60 minutes at all dilutions 1:100 to 1:800
Candida albicans = experiment: Antimicrobial activity by agar dilution, Candida albicans; type: cell-based
Description: (§1) The antimicrobial properties of the synthesized compound 9-(2-hydroxyquinolin-3-yl)-10-(2-hydroxyethyl)-3,3,6,6-tetramethyl-3,4,6,7,9,10-hexahydroacridine1,8(2H,5H)-dione were studied by the method of agar dilution. Test solutions of each compound were prepared in a concentration of 1% using dimethylformamide as a solvent. Then they were diluted in a physiological solution to obtain the final experimental dilutions 1:100, 1:200, 1:400, and 1:800. The effect of these substances were compared with furacillin in a controllable study. The testing microbes used were gram positive bacteria St. Aereus, gram negative bacteria E. Coli and Ps. Aeruginosa, and Candida albicans fungi. The experiments used for this survey were meat-pentonlu agar (EPA) for cultivation of bacteria and Saburo environment for fungi. Each experiment used 1 ml of test solution on each plate 500 min. Add 2 drops of emulsified with microbes feel. All experimental samples were taken from the agar after 10, 20, 40, 60 minutes in the environment on the basis of Patrk planted. Bacteria were cultivated at a temperature of 37° C. for 1 day and the mushroom was kept in a thermostat for 2 hours at a temperature of 28° C. Then the results were checked.

E. Coli = experiment: Antimicrobial activity by agar dilution, E. Coli; type: cell-based, Escherichia coli
Description: as §1

Ps. Aeruginosa = experiment: Antimicrobial activity by agar dilution, Ps. Aeruginosa; type: cell-based, Pseudomonas aeruginosa
Description: as §1

St. Aereus = experiment: Antimicrobial activity by agar dilution, St. Aereus; type: cell-based, Staphylococcus aureus
Description: as §1

Measured: inhibition activity (in words)

CC1(C)CC(=O)C2=C(C1)N(CCO)C1=C(C(=O)CC(C)(C)C1)C2c1cc2ccccc2nc1O [9-(2-hydroxyquinolin-3-yl)-10-(2-hydroxyethyl)-3,3,6,6-tetramethyl-3,4,6,7,9,10-hexahydroacridine1,8(2H,5H)-dione]
highest inhibition activity: all assays above
